Source: PubChem BioAssay AID2060508 (Molecular Pharmacology Branch, DTP, NCI, 2025)

System: 454973-116-R2-J3-PDC spheroids, viability, % test/control
Assay: Anticancer human tumor 454973-116-R2-J3-PDC patient-derived pancreatic carcinoma cell line growth inhibition [GQUAD]
Settings: spheroids with HUVEC and MSC; for IC50: curve of first compound; for viability, T/C: stronger effect = lower value; active = viability on the fitted dose curve at most 10% of control; inactive = the rest
How it was run: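 Viability of tumor cells grown as complex spheroids with endothelial and stromal cells, exposed to drug combinations. Top concentration at or near clinical Cmax (else 10 microM), diluted in half-log increments.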

[1] = second compound 0.0316 µM, first compound 0.0316 µM
[2] = second compound 0.0316 µM, first compound 0.1 µM
[3] = second compound 0.0316 µM, first compound 0.316 µM
[4] = second compound 0.0316 µM, first compound 1 µM
[5] = second compound 0.0316 µM, first compound 3.16 µM
[6] = second compound 0.0316 µM, first compound 10 µM
[7] = second compound 0.1 µM, first compound 0.0316 µM
[8] = second compound 0.1 µM, first compound 0.1 µM
[9] = second compound 0.1 µM, first compound 0.316 µM
[10] = second compound 0.1 µM, first compound 1 µM
[11] = second compound 0.1 µM, first compound 3.16 µM
[12] = second compound 0.1 µM, first compound 10 µM
[13] = second compound 0.316 µM, first compound 0.0316 µM
[14] = second compound 0.316 µM, first compound 0.1 µM
[15] = second compound 0.316 µM, first compound 0.316 µM
[16] = second compound 0.316 µM, first compound 1 µM
[17] = second compound 0.316 µM, first compound 3.16 µM
[18] = second compound 0.316 µM, first compound 10 µM
[19] = second compound 1 µM, first compound 0.0316 µM
[20] = second compound 1 µM, first compound 0.1 µM
[21] = second compound 1 µM, first compound 0.316 µM
[22] = second compound 1 µM, first compound 1 µM
[23] = second compound 1 µM, first compound 3.16 µM
[24] = second compound 1 µM, first compound 10 µM
[25] = second compound 3.16 µM, first compound 0.0316 µM
[26] = second compound 3.16 µM, first compound 0.1 µM
[27] = second compound 3.16 µM, first compound 0.316 µM
[28] = second compound 3.16 µM, first compound 1 µM
[29] = second compound 3.16 µM, first compound 3.16 µM
[30] = second compound 3.16 µM, first compound 10 µM
[31] = second compound 10 µM, first compound 0.0316 µM
[32] = second compound 10 µM, first compound 0.1 µM
[33] = second compound 10 µM, first compound 0.316 µM
[34] = second compound 10 µM, first compound 1 µM
[35] = second compound 10 µM, first compound 3.16 µM
[36] = second compound 10 µM, first compound 10 µM
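Also: spheroids exposed to compounds for seven days.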
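For viability, T/C in this document: 100% = DMSO vehicle control viability.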

CC(C)n1c(=O)n(C)c2cnc3cc(F)c(-c4ccc(OCCCN5CCCCC5)nc4)cc3c21 + Cc1cnc(CNC(=O)c2c(=O)c3ccc(N4CCCN(C)CC4)nc3n3c2sc2ccccc23)cn1
0.0397 µM: IC50 (second compound 1 µM)
active: viability, T/C [31] 0.28% | viability, T/C [32] 0.31% | viability, T/C [33] 14% | viability, T/C [34] 0.33% | viability, T/C [35] 0.3% | viability, T/C [36] 0.25%
> 10 µM: IC50 (second compound 0.0316 µM) | IC50 (second compound 3.16 µM)
inactive: viability, T/C [1] 76.6% | viability, T/C [2] 53.5% | viability, T/C [3] 59.6% | viability, T/C [4] 52.9% | viability, T/C [5] 56.8% | viability, T/C [6] 52.3% | viability, T/C [7] 43% | viability, T/C [8] 35.6% | viability, T/C [9] 36.5% | viability, T/C [10] 33.6% | viability, T/C [11] 39.5% | viability, T/C [12] 32.7% | viability, T/C [13] 45.5% | viability, T/C [14] 49% | viability, T/C [15] 38.7% | viability, T/C [16] 38.8% | viability, T/C [17] 40.3% | viability, T/C [18] 33.7% | viability, T/C [19] 52.4% | viability, T/C [20] 48.4% | viability, T/C [21] 46.9% | viability, T/C [22] 48.7% | viability, T/C [23] 51.8% | viability, T/C [24] 48.2% | viability, T/C [25] 53.7% | viability, T/C [26] 65.8% | viability, T/C [27] 56.1% | viability, T/C [28] 57.4% | viability, T/C [29] 58.3% | viability, T/C [30] 44.4%
< 0.0316 µM: IC50 (second compound 0.1 µM) | IC50 (second compound 0.316 µM) | IC50 (second compound 10 µM)

CC1COCCN1c1cc(-c2ccnn2C)c2ccnc(-c3ccn[nH]3)c2n1 (stereo not drawn) + Cc1cnc(CNC(=O)c2c(=O)c3ccc(N4CCCN(C)CC4)nc3n3c2sc2ccccc23)cn1
active: viability, T/C [31] 0.13% | viability, T/C [32] 0.16% | viability, T/C [33] 2.37% | viability, T/C [34] 0.14% | viability, T/C [35] 0.16% | viability, T/C [36] 0.17%
inactive: viability, T/C [1] 58.3% | viability, T/C [2] 26.2% | viability, T/C [3] 17.6% | viability, T/C [4] 18.5% | viability, T/C [5] 21.3% | viability, T/C [6] 21.7% | viability, T/C [7] 35.7% | viability, T/C [8] 23.1% | viability, T/C [9] 18.9% | viability, T/C [10] 14.7% | viability, T/C [11] 18.3% | viability, T/C [12] 23.3% | viability, T/C [13] 33.7% | viability, T/C [14] 20% | viability, T/C [15] 18.6% | viability, T/C [16] 16.8% | viability, T/C [17] 19.4% | viability, T/C [18] 21.6% | viability, T/C [19] 39.7% | viability, T/C [20] 27.9% | viability, T/C [21] 27% | viability, T/C [22] 24.2% | viability, T/C [23] 22.6% | viability, T/C [24] 19.5% | viability, T/C [25] 40.3% | viability, T/C [26] 34.5% | viability, T/C [27] 31.5% | viability, T/C [28] 27.2% | viability, T/C [29] 20.2% | viability, T/C [30] 20.3%
0.0423 µM: IC50 (second compound 0.0316 µM)
< 0.0316 µM: IC50 (second compound 0.1 µM) | IC50 (second compound 0.316 µM) | IC50 (second compound 1 µM) | IC50 (second compound 3.16 µM) | IC50 (second compound 10 µM)

CC1COCCN1c1cc(C2(S(C)(=N)=O)CC2)nc(-c2ccnc3[nH]ccc23)n1 (stereo not drawn) + Cc1cnc(CNC(=O)c2c(=O)c3ccc(N4CCCN(C)CC4)nc3n3c2sc2ccccc23)cn1
2.56 µM: IC50 (second compound 0.0316 µM)
1.47 µM: IC50 (second compound 1 µM)
1.06 µM: IC50 (second compound 3.16 µM)
active: viability, T/C [31] 0.26% | viability, T/C [32] 0.49% | viability, T/C [33] 0.34% | viability, T/C [34] 0.88% | viability, T/C [35] 0.61% | viability, T/C [36] 0.35%
inactive: viability, T/C [1] 104% | viability, T/C [2] 95.5% | viability, T/C [3] 96.6% | viability, T/C [4] 79.2% | viability, T/C [5] 43.2% | viability, T/C [6] 21.6% | viability, T/C [7] 90.9% | viability, T/C [8] 81.9% | viability, T/C [9] 74.2% | viability, T/C [10] 58.9% | viability, T/C [11] 33% | viability, T/C [12] 23.5% | viability, T/C [13] 70.8% | viability, T/C [14] 73% | viability, T/C [15] 64.6% | viability, T/C [16] 50.5% | viability, T/C [17] 30.3% | viability, T/C [18] 27.8% | viability, T/C [19] 62.9% | viability, T/C [20] 67.2% | viability, T/C [21] 70% | viability, T/C [22] 56.6% | viability, T/C [23] 36.1% | viability, T/C [24] 38% | viability, T/C [25] 65.9% | viability, T/C [26] 66.1% | viability, T/C [27] 59.4% | viability, T/C [28] 46.9% | viability, T/C [29] 42% | viability, T/C [30] 38.4%
0.957 µM: IC50 (second compound 0.316 µM)
1.42 µM: IC50 (second compound 0.1 µM)
< 0.0316 µM: IC50 (second compound 10 µM)

O=C(c1cc(Cc2n[nH]c(=O)c3ccccc23)ccc1F)N1CCN(C(=O)C2CC2)CC1 + Cc1cnc(CNC(=O)c2c(=O)c3ccc(N4CCCN(C)CC4)nc3n3c2sc2ccccc23)cn1
6.21 µM: IC50 (second compound 0.316 µM)
> 10 µM: IC50 (second compound 1 µM) | IC50 (second compound 3.16 µM)
9.01 µM: IC50 (second compound 0.0316 µM)
inactive: viability, T/C [1] 103% | viability, T/C [2] 85.1% | viability, T/C [3] 90.5% | viability, T/C [4] 82.8% | viability, T/C [5] 80.9% | viability, T/C [6] 46.5% | viability, T/C [7] 81.1% | viability, T/C [8] 80.4% | viability, T/C [9] 72.2% | viability, T/C [10] 65.5% | viability, T/C [11] 65.8% | viability, T/C [12] 44.5% | viability, T/C [13] 69.1% | viability, T/C [14] 67.4% | viability, T/C [15] 61.7% | viability, T/C [16] 65.3% | viability, T/C [17] 54.9% | viability, T/C [18] 45.9% | viability, T/C [19] 60.5% | viability, T/C [20] 65.3% | viability, T/C [21] 64% | viability, T/C [22] 63.7% | viability, T/C [23] 58.2% | viability, T/C [24] 55.4% | viability, T/C [25] 74.2% | viability, T/C [26] 69.1% | viability, T/C [27] 64% | viability, T/C [28] 60.9% | viability, T/C [29] 58.3% | viability, T/C [30] 56.2% | viability, T/C [31] 0.27% | viability, T/C [32] 18.9% | viability, T/C [33] 15.1% | viability, T/C [34] 35.9% | viability, T/C [35] 0.4% | viability, T/C [36] 0.28%
< 0.0316 µM: IC50 (second compound 10 µM)
7.58 µM: IC50 (second compound 0.1 µM)
